Measurements published in patent publication US8753838B2, “Method for producing alcohol using bioethanol waste fermented solution” (Korea Institute of Science and Technology, priority 2010, dated 2014).
“Also recorded” adds a separate entry of the source.

Key:
[1] = tested on: Clostridium pasteurianum (C. pasteurianum DSM 525); assay: Alkaline agent for pH control of medium: growth and butanol production of Clostridium pasteurianum (Example 4); assay type: cell-based; details: for cell growth (order of alkaline agents): medium of Example 1 with 10 g/L lactic acid, pH adjusted to 6.5 using each alkaline agent
Excerpt: In the experiment for evaluating the effect of lactic acid, acetic acid and ethanol on the growth of Clostridium pasteurianum (C. pasteurianum DSM 525), sodium hydroxide (NaOH) was used to adjust the pH of the medium. Since the ethanol waste fermented solution has a pH of 4-5, the pH needs to be controlled using an alkaline agent in order to produce butanol using the Clostridium pasteurianum (C. pasteurianum DSM 525). In addition to sodium hydroxide, potassium hydroxide (KOH), calcium hydroxide (Ca(OH)2), ammonia water (NH4OH), etc. are available as the alkaline agent. It was investigated whether the growth of Clostridium pasteurianum (C. pasteurianum DSM 525) is affected by the alkaline agents. For this purpose, after adding lactic acid (10 g/L) to the medium of Example 1, pH was adjusted to 6.5 using each alkaline agent.

[2] = tested on: Clostridium pasteurianum (DSM 525); assay: Effect of lactic acid, acetic acid and ethanol on growth and butanol production of Clostridium pasteurianum in glycerol medium (Example 1); assay type: cell-based; details: for inhibition of the growth of Clostridium pasteurianum (OD600): added to the medium up to 10 g/L, pH 6.5, 37° C.
Experimental: The butanol-producing bacterium Clostridium pasteurianum (DSM 525) was acquired from the DSMZ (Germany). The medium used for experiment was prepared with primarily distilled water (1 L) by adding the following ingredients: glycerol (30 g), K2HPO4 (0.5 g), KH2PO4 (0.5 g), MnSO4.H2O (0.01 g), MgSO4.7H2O (0.2 g), FeSO4.7H2O (0.01 g), NaCl (0.01 g), yeast extract (1 g), (NH4)2SO4 (2 g), MES (19.52 g), biotin (0.00001 g), thiamine (0.001 g) and p-aminobenzoic acid (0.001 g).
After adding lactic acid (C3H6O3, 0-14.6 g/L), acetic acid (C2H4O2, 0-10 g/L) or ethanol (C2H60, 0-20 g/L) to the medium, the pH was adjusted to 6.5 using potassium hydroxide (KOH) or sodium hydroxide (NaOH). After placing the medium (50 mL) in a 125-mL serum bottle and removing oxygen by blowing in argon gas, the bottle was sealed with a butyl rubber stopper and an aluminum cap. After sterilizing under high pressure and inoculating Clostridium pasteurianum cultured for 1-2 days at 5% (v/v), the bacterium was cultured at 37° C. while shaking at 130 rpm.
The cell growth was determined by measuring absorbance (optical density) at 600 nm (OD600).

Structure (SMILES) | cell growth (order of alkaline agents) [1] | inhibition of the growth of Clostridium pasteurianum (OD600) [2] | other results
N [ammonia water, ammonia water (NH4OH)] | faster in the order of calcium hydroxide, potassium hydroxide, ammonia water and sodium hydroxide | – | –
[Ca+2].[OH-].[OH-] [calcium hydroxide, calcium hydroxide (Ca(OH)2)] | faster in the order of calcium hydroxide, potassium hydroxide, ammonia water and sodium hydroxide | – | –
CC(O)C(=O)O (stereo not drawn) [Lactic acid, lactic acid] | – | did not result in severe inhibition | production of butanol ([2]; lactic acid added (10 g/L or less) compared to when not added): improved butanol-producing effect; also recorded: improved production of butanol
[Na+].[OH-] [sodium hydroxide, sodium hydroxide (NaOH)] | faster in the order of calcium hydroxide, potassium hydroxide, ammonia water and sodium hydroxide | – | –
[K+].[OH-] [potassium hydroxide, potassium hydroxide (KOH)] | faster in the order of calcium hydroxide, potassium hydroxide, ammonia water and sodium hydroxide | – | –
CCO [ethanol] | – | did not result in severe inhibition | –
CC(=O)O [acetic acid] | – | did not result in severe inhibition | –
[Na] [sodium] | – | – | growth of the microorganism ([1]; as compared to potassium): inhibits the growth
